Experiments:
[1] = test system: deoxymyoglobin (deoxy-Mb); test: Detection of CO release: conversion of deoxymyoglobin to carbonmonoxy myoglobin (MbCO), spectrophotometric; type: physicochemical
Description: The release of CO from CORM-3 or dCOMR-3 was assessed spectrophotometrically by measuring the conversion of deoxymyoglobin (deoxy-Mb) to carbonmonoxy myoglobin (MbCO) as previously described. The amount of MbCO formed was quantified by measuring the absorbance at 540 nm (extinction coefficient=[…]). Myoglobin solutions (66 μmol/L final concentration) were prepared fresh by dissolving the protein in 0.04 M phosphate buffer (pH 6.8). Sodium dithionite (0.1%) was added to convert myoglobin to deoxy-Mb prior to each reading.
When CORM-3 was prepared in distilled water and then added to the phosphate buffer solution containing Mb, a spectrum characteristic of MbCO was rapidly detected (FIG. 1B).

[2] = test system: isolated hearts from male Lewis rats; test: Ischaemia-reperfusion model in isolated Langendorff-perfused hearts; set-up: species or system rat
Description: Isolated hearts from male Lewis rats (300-350 g) were perfused according to the Langendorff technique as previously described by our group. Briefly, hearts were rapidly excised and perfused at constant flow (11 ml/min) with Krebs-Henseleit buffer (in mM: 119 NaCl, 4.7 KCl, 2.5 CaCl2, 1.66 MgSO4, 24.9 NaHCO3, 1.18 KH2PO4, 5.55 glucose, 2.00 sodium pyruvate, 0.5 EGTA) bubbled with 95% O2 and 5% CO2 at 37° C. (pH 7.4). Coronary perfusion pressure (CPP) was continuously measured by a pressure transducer (Grass Instruments, Astromed, RI, USA) connected to the aortic cannula. A latex balloon filled with saline was inserted into the left ventricle through the atrium and connected by a catheter to a second pressure transducer. The balloon was inflated to provide an initial end-diastolic pressure (EDP) of 10 mmHg. Both transducers were connected to a computer and data were acquired with BioPac™ instrumentation and analyzed with the accompanying AcqKnowledge™ software (BIOPAC System Inc.). Left ventricular developed pressure (LVDP), heart rate (HR), maximal contraction (+dP/dt) and relaxation (−dP/dt) rates, CPP and EDP were continuously recorded throughout the period of perfusion.
Isolated hearts were allowed to equilibrate at constant flow for 30 min and then made globally ischaemic by interrupting the buffer perfusion. Ischaemic hearts were kept at 37° C. in the water-jacketed chamber for 30 min and then reperfused for 60 min. All the hemodynamic parameters were continuously monitored throughout the experimental protocol as reported above. Krebs buffer was collected for 10 min from the pulmonary artery prior to the ischaemic event and in the last 10 min of reperfusion for creatine kinase (CK) analysis. At the end of reperfusion, hearts were stained to assess tissue viability using tetrazolium red. In additional experiments, hearts made ischaemic were infused for the first 10 min of reperfusion with CORM-3 or dCORM-3 (10 μM final concentration) via a syringe pump connected to the side arm of the aortic cannula. To assess a possible role of mitochondrial ATP-dependent potassium channels (KATP) in cardioprotection mediated by CORM-3, control hearts or hearts receiving CORM-3 were pre-treated for 10 min prior to ischaemia with […] (5-HD, 50 μM final concentration), a specific blocker of mitochondrial KATP.
Hearts from each experimental group (n=5) were stained for tissue viability at the end of the reperfusion period. Hearts were perfused through a side arm of the aortic cannula for 20 min with tetrazolium red (3% w/v) in Krebs Henseleit buffer at 37° C. The tetrazolium salt stains the viable myocardium brick red, whereas the infarcted tissue remains unstained and appears white. After staining, hearts were removed and stored in 2% formalin in the dark prior to analysis. Hearts were carefully cut into 2-mm thick sections, scanned into a computer using an AGFA Arcus® II scanner and the total ischaemic size was determined by volumetric analysis software (Scion Image®, Scion Corporation, MA, USA). Cardiac muscle damage was assessed by measuring the release of creatine kinase (CK) into the perfusate using a commercially available spectrophotometric assay kit (DG147-A) from Sigma Diagnostic (Poole, Dorset).

[3] = dissolved in DMSO; cited from earlier work
[4] = test system: deoxymyoglobin (deoxy-Mb); details: cited from earlier work
[5] = test system: pre-contracted aortic rings; details: cited from earlier work
[6] = 10 μM infused for first 10 min of reperfusion, 30 min ischaemia, 60 min reperfusion
[7] = at the end of reperfusion, 10 μM infused for first 10 min of reperfusion
[8] = before ischaemia, hearts later reperfused with CORM-3

With `NCC(=O)O.[CH+]=O.[CH+]=O.[CH+]=O.[Cl][Ru]` [CORM-3, tricarbonylchloro-(glycinato)ruthenium(II)] the “CO liberated per mole of compound” value ([1]; CORM-3 prepared in distilled water, added to phosphate buffer containing Mb) was 1 mol, the “formation of MbCO” value ([1]; addition of 40 μM CORM-3 prepared in distilled water, myoglobin 66 μmol/L, 0.04 M phosphate buffer pH 6.8) was 36.4 ± 0.9 µM and the “ability to liberate CO (conversion of Mb to MbCO) after standing in water” value ([1]; dissolved in water, left 24 h at room temperature) was “retained its full ability to liberate CO”. The “stability / ability to release CO in Krebs-Henseleit buffer” value ([1]; prepared in Krebs-Henseleit buffer, over time) was “gradually decomposed over time and lost its ability to release CO”, the “maximal rate of contraction (+dP/dt), after ischaemia-reperfusion” value [2, 6] was 3726±542 mmHg/s and the “maximal rate of relaxation (−dP/dt), after ischaemia-reperfusion” value [2, 6] was 2207±258 mmHg/s. For the same molecule, the “increase in left ventricular-developed pressure (LVDP) compared to baseline” value ([2]; after 60 min reperfusion, 10 μM infused for first 10 min of reperfusion, 30 min global ischaemia) was 44%, the “increase in coronary perfusion pressure (CPP)” value [2, 7] was 13±2.2 mmHg and the “increase in end diastolic pressure (EDP)” value [2, 7] was 3±1.8 mmHg. The “maximal rate of contraction (+dP/dt), baseline” value [2, 8] was 2099±99 mmHg/s, the “maximal rate of relaxation (−dP/dt), baseline” value [2, 8] was 1432±149 mmHg/s and the “creatine kinase (CK) activity in buffer, before ischaemia” value ([2]; buffer collected 10 min prior to ischaemia, hearts later reperfused with CORM-3) was 6.5±2.3 U/L. For the same molecule, the “infarct size (tetrazolium red staining)” value ([2]; end of reperfusion, 10 μM infused for first 10 min of reperfusion) was 2.3±0.6%, the “protective effects on myocardial contractility (LVDP, +dP/dt, −dP/dt) and on EDP and CPP increases, with 5-HD pre-treatment” value ([2]; hearts pre-treated 10 min prior to ischaemia with 5-HD 50 μM, CORM-3 10 μM at reperfusion) was “totally abolished” and the “creatine kinase (CK) activity in buffer, after reperfusion” value ([2]; last 10 min of reperfusion, 10 μM infused for first 10 min of reperfusion) was 19.9±5.3 U/L.

For `[C-]#[O+].[C-]#[O+].[C-]#[O+].[C-]#[O+].[C-]#[O+].[C-]#[O+].[Cl][Ru][Cl].[Cl][Ru][Cl]` [[Ru(CO)3Cl2]2, Tricarbonyldichloro ruthenium(II) dimer], the “CO liberation on dissolution” value [3] is listed as “CO is liberated into solution”.

In the case of [Fe(SPh)2(2,2′-bipyridine)(CO)2], the “release of CO to myoglobin in solution” value [4] is given as “not to release CO to myoglobin in solution” and the “dilatation of pre-contracted aortic rings” value [5] is given as “capable of promoting dilatation of pre-contracted aortic rings”.

Source: patent US7989650B2, “Therapeutic delivery of carbon monoxide to extracorporeal and isolated organs” (hemoCORM Limited, priority 2002, dated 2011)
